Measurements from ChEMBL document CHEMBL5579820, “New insights into butyrylcholinesterase: Pharmaceutical applications, selective inhibitors and multitarget-directed ligands” (Eur J Med Chem, 2024).

Experiments:
[1] = target: T1, Acetylcholinesterase (Homo sapiens, UniProt P22303); assay: Inhibition of human AChE using acetylthiocholine iodide as substrate by Ellman's method
[2] = target: T2, Cholinesterase (Homo sapiens, UniProt P06276); assay: Inhibition of human BChE using butyrylthiocholineiodide as substrate by Ellman's method
[3] = target: T1, Acetylcholinesterase; assay: Inhibition of human recombinant AChE using acetylthiocholine iodide as substrate preincubated for 30 mins followed by substrate addition and measured for 60 mins by Ellman's method
[4] = target: Cholinesterase (Equus caballus, UniProt P81908); assay: Inhibition of equine serum BuChE using S-butyrylthiocholine chloride as substrate by Ellman's method; format: cell-free
[5] = target: T2, Cholinesterase; assay: Inhibition of BChE (unknown origin) incubated for 10 mins by Ellman's method
[6] = Inhibition of equine serum BChE using butyrylthiocholine iodide as substrate incubated for 30 mins by Ellman's method; design: species or system Equus caballus
[7] = target: Indoleamine 2,3-dioxygenase 1 (Homo sapiens, UniProt P14902); assay: Inhibition of IDO1 (unknown origin)
[8] = target: Acetylcholinesterase (Electrophorus electricus, UniProt O42275); assay: Inhibition of electric eel AChE using acetylthiocholine iodide as substrate by Ellman's method
[9] = Inhibition of equine serum BChE using butyrylthiocholine iodide as substrate by measured after 30 mins Ellman's method; format: cell-free, Equus caballus
[10] = target: T3, Amine oxidase [flavin-containing] A (Homo sapiens, UniProt P21397); assay: Inhibition of human recombinant MAO-A using kynuramine as substrate by incubated for 75 mins by spectrophotometric analysis
T3 sequence (P21397 whole entry): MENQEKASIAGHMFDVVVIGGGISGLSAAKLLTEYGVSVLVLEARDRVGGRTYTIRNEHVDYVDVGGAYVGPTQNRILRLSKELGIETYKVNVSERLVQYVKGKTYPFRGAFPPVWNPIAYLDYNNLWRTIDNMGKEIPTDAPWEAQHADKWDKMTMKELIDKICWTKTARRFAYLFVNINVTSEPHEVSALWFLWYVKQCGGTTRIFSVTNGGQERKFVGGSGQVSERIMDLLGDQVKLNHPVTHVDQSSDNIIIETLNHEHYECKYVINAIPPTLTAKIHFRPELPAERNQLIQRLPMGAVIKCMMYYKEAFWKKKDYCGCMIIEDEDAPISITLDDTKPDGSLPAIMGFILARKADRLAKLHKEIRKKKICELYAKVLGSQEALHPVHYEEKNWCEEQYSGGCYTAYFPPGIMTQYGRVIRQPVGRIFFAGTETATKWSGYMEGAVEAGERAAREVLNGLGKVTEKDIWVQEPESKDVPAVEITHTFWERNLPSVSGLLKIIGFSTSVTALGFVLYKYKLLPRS

[11] = target: T4, Amine oxidase [flavin-containing] B (Homo sapiens, UniProt P27338); assay: Inhibition of human recombinant MAO-B using benzylamine as substrate by fluorescence based analysis
T4 sequence (P27338 whole entry): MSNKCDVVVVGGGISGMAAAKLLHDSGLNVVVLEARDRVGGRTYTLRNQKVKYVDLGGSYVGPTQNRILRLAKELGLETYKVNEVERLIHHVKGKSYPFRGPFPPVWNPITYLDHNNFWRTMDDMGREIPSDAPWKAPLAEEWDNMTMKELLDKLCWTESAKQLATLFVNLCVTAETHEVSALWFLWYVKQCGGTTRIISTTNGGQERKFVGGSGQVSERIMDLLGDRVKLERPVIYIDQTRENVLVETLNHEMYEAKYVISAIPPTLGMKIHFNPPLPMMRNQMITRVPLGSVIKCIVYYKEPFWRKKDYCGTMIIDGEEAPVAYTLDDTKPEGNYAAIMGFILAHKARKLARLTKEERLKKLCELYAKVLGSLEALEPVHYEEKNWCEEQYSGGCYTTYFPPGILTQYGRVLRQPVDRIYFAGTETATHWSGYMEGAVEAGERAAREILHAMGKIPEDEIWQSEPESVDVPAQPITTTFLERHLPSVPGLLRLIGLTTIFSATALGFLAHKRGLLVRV

T2 sequence (P06276 whole entry): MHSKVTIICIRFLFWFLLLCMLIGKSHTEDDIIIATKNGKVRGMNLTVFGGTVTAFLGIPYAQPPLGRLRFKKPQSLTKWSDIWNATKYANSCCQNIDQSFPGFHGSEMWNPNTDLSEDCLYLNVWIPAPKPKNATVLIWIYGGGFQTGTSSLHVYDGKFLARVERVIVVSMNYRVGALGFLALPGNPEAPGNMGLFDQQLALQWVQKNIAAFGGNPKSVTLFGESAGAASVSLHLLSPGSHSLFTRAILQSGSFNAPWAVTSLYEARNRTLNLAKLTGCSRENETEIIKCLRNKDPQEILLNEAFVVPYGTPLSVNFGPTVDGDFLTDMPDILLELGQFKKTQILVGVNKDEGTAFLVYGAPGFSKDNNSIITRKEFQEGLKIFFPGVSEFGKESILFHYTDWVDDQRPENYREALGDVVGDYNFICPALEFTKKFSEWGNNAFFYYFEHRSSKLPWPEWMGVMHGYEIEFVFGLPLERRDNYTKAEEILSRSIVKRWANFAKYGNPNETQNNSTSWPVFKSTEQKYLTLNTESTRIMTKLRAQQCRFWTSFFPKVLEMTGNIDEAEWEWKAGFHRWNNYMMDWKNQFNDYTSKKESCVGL
T1 sequence (P22303 whole entry): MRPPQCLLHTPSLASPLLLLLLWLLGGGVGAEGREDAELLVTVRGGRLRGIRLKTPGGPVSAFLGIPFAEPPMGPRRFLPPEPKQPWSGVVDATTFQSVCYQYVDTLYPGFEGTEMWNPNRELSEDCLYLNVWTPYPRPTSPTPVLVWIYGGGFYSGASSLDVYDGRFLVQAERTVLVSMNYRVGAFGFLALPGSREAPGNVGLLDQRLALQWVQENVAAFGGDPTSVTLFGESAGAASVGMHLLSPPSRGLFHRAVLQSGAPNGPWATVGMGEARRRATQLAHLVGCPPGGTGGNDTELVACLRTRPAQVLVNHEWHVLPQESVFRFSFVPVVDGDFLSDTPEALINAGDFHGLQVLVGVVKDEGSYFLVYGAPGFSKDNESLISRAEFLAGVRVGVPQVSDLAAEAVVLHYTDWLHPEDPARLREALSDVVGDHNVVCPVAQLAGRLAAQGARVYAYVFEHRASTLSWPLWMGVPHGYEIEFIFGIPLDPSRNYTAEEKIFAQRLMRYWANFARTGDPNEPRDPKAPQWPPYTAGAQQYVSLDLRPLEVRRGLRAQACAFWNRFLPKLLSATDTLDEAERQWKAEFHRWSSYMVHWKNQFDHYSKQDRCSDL
Cholinesterase (Equus caballus, UniProt P81908), sequence (P81908 whole entry): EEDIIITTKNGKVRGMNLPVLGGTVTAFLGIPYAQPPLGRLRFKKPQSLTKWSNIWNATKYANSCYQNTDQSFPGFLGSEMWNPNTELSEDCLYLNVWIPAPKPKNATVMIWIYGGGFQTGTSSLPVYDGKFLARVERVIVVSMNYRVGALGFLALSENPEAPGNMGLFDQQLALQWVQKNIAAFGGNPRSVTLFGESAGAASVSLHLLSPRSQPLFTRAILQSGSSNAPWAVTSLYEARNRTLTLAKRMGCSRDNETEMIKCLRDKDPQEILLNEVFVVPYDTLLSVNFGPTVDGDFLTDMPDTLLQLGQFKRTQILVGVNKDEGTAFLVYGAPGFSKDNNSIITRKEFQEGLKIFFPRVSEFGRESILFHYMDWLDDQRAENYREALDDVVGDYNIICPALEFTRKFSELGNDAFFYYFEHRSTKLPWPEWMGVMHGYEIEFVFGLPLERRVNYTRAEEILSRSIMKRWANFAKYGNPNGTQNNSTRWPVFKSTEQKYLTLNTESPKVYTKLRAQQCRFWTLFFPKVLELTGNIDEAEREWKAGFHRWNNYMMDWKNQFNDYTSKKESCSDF
Acetylcholinesterase (Electrophorus electricus, UniProt O42275), sequence (O42275 whole entry): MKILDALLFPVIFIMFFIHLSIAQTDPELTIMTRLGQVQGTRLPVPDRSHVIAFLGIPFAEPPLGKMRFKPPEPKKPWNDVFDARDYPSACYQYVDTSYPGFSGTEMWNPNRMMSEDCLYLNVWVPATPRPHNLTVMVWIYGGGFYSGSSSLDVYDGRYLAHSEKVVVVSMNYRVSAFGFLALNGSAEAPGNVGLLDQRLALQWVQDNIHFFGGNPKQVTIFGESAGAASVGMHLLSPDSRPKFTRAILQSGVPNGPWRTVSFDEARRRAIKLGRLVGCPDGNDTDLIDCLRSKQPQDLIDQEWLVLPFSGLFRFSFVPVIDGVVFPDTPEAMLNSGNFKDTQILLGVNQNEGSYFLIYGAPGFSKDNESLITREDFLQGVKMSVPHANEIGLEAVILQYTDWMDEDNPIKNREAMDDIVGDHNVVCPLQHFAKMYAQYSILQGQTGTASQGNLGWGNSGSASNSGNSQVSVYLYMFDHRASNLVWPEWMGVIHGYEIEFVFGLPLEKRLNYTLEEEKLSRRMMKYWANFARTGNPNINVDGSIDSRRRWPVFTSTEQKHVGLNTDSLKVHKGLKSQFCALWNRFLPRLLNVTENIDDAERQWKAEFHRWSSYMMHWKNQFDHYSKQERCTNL
Indoleamine 2,3-dioxygenase 1, sequence (P14902 whole entry): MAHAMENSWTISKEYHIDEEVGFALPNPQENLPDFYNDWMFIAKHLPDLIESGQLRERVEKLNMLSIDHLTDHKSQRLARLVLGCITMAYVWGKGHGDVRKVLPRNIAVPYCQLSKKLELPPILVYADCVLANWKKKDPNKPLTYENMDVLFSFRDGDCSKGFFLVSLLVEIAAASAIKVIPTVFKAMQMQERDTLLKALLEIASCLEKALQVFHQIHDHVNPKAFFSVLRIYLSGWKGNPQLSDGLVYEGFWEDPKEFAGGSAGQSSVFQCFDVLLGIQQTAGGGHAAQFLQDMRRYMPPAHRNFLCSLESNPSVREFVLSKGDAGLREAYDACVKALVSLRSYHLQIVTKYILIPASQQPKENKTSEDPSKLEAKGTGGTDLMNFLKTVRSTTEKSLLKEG

Q: Which IC50 [1] does the source give for `Cc1cc2c(cc1C)[n+](Cc1ccccc1C)cn2C(c1ccccc1)c1ccccc1` here?
A: Its IC50 is 4.19 µM.

Q: And the IC50 [2]?
A: Its IC50 is 0.15 µM.

Q: With `Clc1ccc(C(Cn2ccnc2)OCc2csc3c(Cl)cccc23)c(Cl)c1` (stereo unspecified) [SERTACONAZOLE] as the molecule, how does the IC50 [3] read?
A: Its IC50 is 0.1 µM.

Q: With `CN1CCc2c(c3cc(F)ccc3n2CCNC23CC4CC(C)(CC(C)(C4)C2)C3)C1` as the molecule, how does the IC50 [4] read?
A: Its IC50 is 0.72 µM.

Q: What about the IC50 [5] of the same molecule?
A: Its IC50 is 39.7 µM.

Q: For `COc1cccc(COC(Cn2ccnc2)c2ccc(F)c(F)c2)c1` (stereo unspecified), which IC50 [6] is on record?
A: Its IC50 is 13.2 µM.

Q: What about the IC50 [7] of the same molecule?
A: The IC50 was 22.8 µM.

Q: For `COc1cccc(COc2ccc(C(C)=O)c(OCc3cn(CCc4c[nH]c5ccccc45)nn3)c2)c1`, which IC50 [8] is on record?
A: The IC50 was over 100 µM.

Q: And the IC50 [9]?
A: The IC50 was 0.92 µM.

Q: What about the IC50 [10] of the same molecule?
A: The IC50 was 74.7 µM.

Q: And the IC50 [11]?
A: Its IC50 is 3.71 µM.
